Data set [1] concerns RAW264.7. Kind of data set: Induction of NO production in mouse RAW264.7 cells after 24 hrs by FA-OMe fluorescent probe based/immunomodulatory activity assay. It is filed as functional, cell-based.
Data set [2] deals with RAW264.7. Kind of data set: Cytotoxicity against mouse RAW264.7 cells assessed as cell viability at 0.001 to 50 uM after 48 hrs by MTT assay. The class given is cell-based. To be noted: raw264.7, 48 h. Background: Tetrazolium assays rely on reduction of a dye to a coloured formazan, in cell work by metabolically active cells.
For data set [3], the system named is RAW264.7. The data set can be described thus: Induction of reactive oxygen species generation in mouse RAW264.7 cells at 0.01 to 10 uM after 24 hrs by DCF-DA dye-based/immunomodulatory activity assay. The class given is functional, cell-based.
In data set [4] the test system is RAW264.7. Kind of data set: Induction of NO production in mouse RAW264.7 cells at 0.1 uM after 24 hrs by FA-OMe fluorescent probe based/immunomodulatory activity assay. The class given is functional.
Data set [5] relates to RAW264.7. Kind of data set: Stimulation of lysosomal activity in mouse RAW264.7 cells after 24 hrs by acridine orange based/immunomodulatory activity assay. The class given is functional, cell-based.
Data set [6] concerns RAW264.7. The data set can be described thus: Stimulation of lysosomal activity in mouse RAW264.7 cells at 0.1 uM after 24 hrs by acridine orange based/immunomodulatory activity assay. The class given is functional.
Data set [7] relates to RAW264.7. Kind of data set: Stimulation of lysosomal activity in mouse RAW264.7 cells at 0.1 uM after 24 hrs by acridine orange based/immunomodulatory activity assay relative to 1 ug/ml LPS stimulation. It is filed as functional, cell-based.
Data set [8] concerns RAW264.7. Kind of data set: Stimulation of lysosomal activity in mouse RAW264.7 cells at 0.001 to 1 uM after 24 hrs by acridine orange based/immunomodulatory activity assay. The class given is functional, cell-based.
Data set [9] concerns RAW264.7. Kind of data set: Stimulation of lysosomal activity in mouse RAW264.7 cells at 10 uM after 24 hrs by acridine orange based/immunomodulatory activity assay. The class given is functional, cell-based.
The subject of data set [10] is RAW264.7. The data set can be described thus: Induction of NO production in mouse RAW264.7 cells at 0.01 uM after 24 hrs by FA-OMe fluorescent probe based/immunomodulatory activity assay. It is filed as functional.
Data set [11] concerns RAW264.7. Kind of data set: Induction of reactive oxygen species generation in mouse RAW264.7 cells at 0.01 uM after 24 hrs by DCF-DA dye-based/immunomodulatory activity assay relative to control. It is filed as functional.

Experimental findings from ChEMBL document CHEMBL3585307, “Cyclic Steroid Glycosides from the Starfish Echinaster luzonicus: Structures and Immunomodulatory Activities” (J Nat Prod, 2015) are described below.

Calls of active or inactive are those of the source. The rule behind the calls is not given here.

Turning to `CC(C)CC(=O)C[C@@H](C)[C@H]1CC[C@H]2C3=C[C@H]4OC[C@H]5O[C@@H](O[C@H]6[C@@H](OC[C@H](O)[C@@H]6O)O[C@H]6[C@H](O[C@H]7CC[C@@](C)([C@@H]4C7)[C@H]3CC[C@]12C)O[C@H](C(=O)O)[C@@H](O)[C@@H]6O)[C@H](O)[C@@H](O)[C@@H]5O`, the result with RAW264.7 [1] and in the data set with RAW264.7 [3] was inactive. Besides, in the data set on RAW264.7 [2], the Activity result is “Non-toxic”.
In the case of `CC(C)CC(=O)C[C@@H](C)[C@H]1CC[C@H]2C3=C[C@H]4OC[C@H]5O[C@@H](O[C@H]6[C@@H](OC[C@H](O)[C@@H]6O)O[C@H]6[C@H](O[C@H]7CC[C@@](C)([C@@H]4C7)[C@H]3CC[C@]12C)O[C@H](C(=O)O)[C@@H](O)[C@@H]6O)[C@H](O)[C@@H](O)[C@H]5O`, the Activity in the data set on RAW264.7 [4] was 15%; in the data set on RAW264.7 [1] it was “Dose-dependent effect”; with RAW264.7 [5], “Dose-dependent effect”; in the data set with RAW264.7 [6], 50%; in the data set with RAW264.7 [2], “Non-toxic”; in the data set on RAW264.7 [10] it was 15%. The result with RAW264.7 [7], with RAW264.7 [8] and in the data set on RAW264.7 [3] was Active. The result in the data set on RAW264.7 [9] was inactive. The “fold change (FC)” value in the data set on RAW264.7 [11] worked out at 2.
